Measurements: publication PMC7099625, “Exploration of thiaheterocyclic hHDAC6 inhibitors as potential antiplasmodial agents” (Future Medicinal Chemistry, 2017)
Where two headings read alike, the source gives them in different places.

Columns and labels:
[1] = system: P. falciparum (NF54); assay: Antiplasmodial parasite lactate dehydrogenase assay, chloroquine-sensitive strain NF54; assay type: cell-based, Plasmodium falciparum; settings: read-out: IC50 NF54
Protocol: (§1) Continuous in vitro cultures of asexual erythrocyte stages of P. falciparum were maintained using a modified method of Trager and Jensen. Quantitative assessment of antiplasmodial activity in vitro was determined via the parasite lactate dehydrogenase assay using a modified method described by Makler. The test samples were prepared to a 20 mg/ml stock solution in 100% DMSO. Stock solutions were stored at -20°C. Further dilutions were prepared in complete medium on the day of the experiment. CQ and artesunate were used as the reference drugs. A full dose–response was performed to determine the concentration inhibiting 50% of parasite growth (IC50 value). Test samples were tested at a starting concentration of 100 μg/ml, which was then serially diluted twofold in complete medium to give 10 concentrations; with the lowest concentration being 0.2 μg/ml. The same dilution technique was used for all samples. References were tested at a starting concentration of 1 μg/ml.
(§2) The antiplasmodial activity of this set of structures was first determined through a modified parasite lactate dehydrogenase assay against a CQ-sensitive (CQS) strain of P. falciparum (NF54). […] Finally, a selectivity index (SI = IC50 CHO/IC50 NF54) and a resistance index (RI = IC50 Dd2/IC50 NF54) was calculated to be able to easily compare the therapeutic window (active concentration vs toxic concentration) and sensitivity toward resistance developing.

[2] = system: P. falciparum (Dd2); assay: Antiplasmodial parasite lactate dehydrogenase assay, chloroquine-resistant strain Dd2; assay type: cell-based, Plasmodium falciparum; settings: read-out: IC50 Dd2
Protocol: as §1, §2

[3] = system: Chinese Hamster Ovary (CHO) cells; assay: MTT in vitro cytotoxicity assay; assay type: cell-based; settings: triplicate on one occasion
Protocol: Test samples were screened for in vitro cytotoxicity against a mammalian cell-line, Chinese Hamster Ovary (CHO), using the 3-(4,5-dimethylthiazol-2-yl)-2,5-diphenyltetrazoliumbromide (MTT)-assay. The MTT-assay is used as a colorimetric assay for cellular growth and survival, and compares well with other available assays. The tetrazolium salt MTT was used to measure all growth and chemosensitivity. The test samples were tested in triplicate on one occasion. The same stock solutions prepared for antiplasmodial evaluation were used for cytotoxicity testing. Test compounds were stored at -20°C until use. Dilutions were prepared on the day of the experiment. Emetine was used as the reference drug in all experiments. The starting concentration was 100 μg/ml, which was serially diluted in complete medium with tenfold dilutions to give six concentrations, the lowest being 0.001 μg/ml. […] The IC50 values were obtained from full dose–response curves, using a nonlinear dose–response curve fitting analysis via GraphPad Prism v.4 software. […]

[4] = system: hHDAC6; set-up: method as in PMID 23538448, PMID 25994553, PMID 26822143, PMID 27717044; settings: hHDAC6 inhibition, previously described; read-out: IC50 HDAC6; cited from earlier work
[5] = chloroquine-sensitive (CQS) P. falciparum strain NF54, asexual erythrocyte stages, pLDH assay
[6] = chloroquine-resistant (CQR) P. falciparum strain Dd2, asexual erythrocyte stages, pLDH assay

O=C(NO)c1ccc(NCc2csc3cc(Br)ccc23)cc1 [Compound 2g] gave an IC50 [1, 5] of 1300 nM, an IC50 [2, 6] of 1580 nM and an IC50 [3] of 46100 nM. For the same compound, the IC50 [4] was 64 nM.
Work on O=C(NO)c1ccc(CN2c3ccccc3[S+]([O-])CC3CCCC32)cc1 (stereo not shown) [Compound 3g] yielded an IC50 [1, 5] of 1250 nM, an IC50 [2, 6] greater than 2600 nM and an IC50 [3] of 173000 nM. For the same compound, the IC50 [4] was 6 nM.
O=C(NO)c1ccc(CN2c3ccccc3SCC3CCCC32)cc1 (stereo not shown) [Compound 3a] showed an IC50 [1, 5] of 1590 nM, an IC50 [2, 6] greater than 2700 nM and an IC50 [3] of 104000 nM. The IC50 [4] was 36 nM.
With O=C(NO)c1ccc(NCc2csc3ccc(-c4ccccc4)cc23)cc1 [Compound 2e] the IC50 [1, 5] was 5070 nM.
With O=C(NO)c1ccc(NCc2csc3cc(-c4ccccc4)ccc23)cc1 [Compound 2i] the IC50 [1, 5] was 3340 nM, the IC50 [2, 6] was 1140 nM and the IC50 [3] was 31200 nM.
With O=C(NO)c1ccc(CN2c3cc(Cl)ccc3SCC3CCCC32)cc1 (racemic) [Compound 3b] the IC50 [1, 5] was greater than 2480 nM, the IC50 [2, 6] was greater than 2480 nM and the IC50 [3] was 41400 nM. The IC50 [4] was 650 nM.
In the case of O=C(NO)c1ccc(Cn2c3c(c4ccccc42)CS(=O)(=O)CC3)cc1 [Compound 1e], the IC50 [1, 5] is given as 10800 nM and the IC50 [4] is given as 2 nM.
For COc1cc(C(=O)NO)ccc1Cn1c2c(c3cc(F)ccc31)CS(=O)(=O)CC2 [Compound 1h], the IC50 [1, 5] is listed as 32700 nM and the IC50 [4] is listed as 1300 nM.
Work on O=C(NO)c1ccc(CN2c3cc(Cl)ccc3SCC3CCCC32)cc1 (racemic) [Compound 3i] yielded an IC50 [1, 5] greater than 2480 nM, an IC50 [2, 6] of 1570 nM and an IC50 [3] of 50900 nM. The IC50 [4] was 160 nM.
O=C(NO)c1ccc(CN2c3ccccc3SCC3CCCCC32)cc1 (stereo not shown) [Compound 3j] gave an IC50 [1, 5] greater than 2610 nM, an IC50 [2, 6] greater than 2610 nM and an IC50 [3] of 61700 nM. The IC50 [4] was 92 nM.
In the case of O=C(NO)c1ccc(CN2c3cc(Cl)ccc3S(=O)(=O)CC3CCCC32)cc1 (racemic) [Compound 3e], the IC50 [3] is given as 35400 nM and the IC50 [4] is given as 68 nM.
O=C(NO)c1cccc(Cn2c3c(c4cc(-c5ccccc5)ccc42)CS(=O)(=O)CC3)c1 [Compound 1r] showed an IC50 [1, 5] of 8130 nM.
For O=C(NO)c1ccc(N(Cc2ccccc2)Cc2csc3cc(Br)ccc23)cc1 [Compound 2h], the IC50 [1, 5] was 8450 nM.
With O=C(NO)c1ccc(Cn2c3c(c4cc(Br)ccc42)CS(=O)(=O)CC3)cc1 [Compound 1i] the IC50 [3] was 109000 nM.
For Cc1cc(C(=O)NO)ccc1NCc1csc2ccccc12 [Compound 2k], the IC50 [1, 5] was 36800 nM.
With O=C(NO)c1cccc(Cn2c3c(c4cc(F)ccc42)CSCC3)c1 [Compound 1o] the IC50 [1, 5] was 1320 nM, the IC50 [2, 6] was 1440 nM and the IC50 [3] was 48100 nM.
O=C(NO)c1ccc(Cn2c3c(c4ccccc42)C[S+]([O-])CC3)cc1 (racemic) [Compound 1j] showed an IC50 [1, 5] of 1280 nM, an IC50 [2, 6] of 1300 nM and an IC50 [3] greater than 282000 nM. For the same compound, the IC50 [4] was 14 nM.
O=C(NO)c1cccc(Cn2c3c(c4ccccc42)CS(=O)(=O)CC3)c1 [Compound 1p] gave an IC50 [1, 5] of 5450 nM.
Work on O=C(NO)c1ccc(CN2c3ccccc3SCC3CCCCC32)cc1 (stereo not shown) [Compound 3h] yielded an IC50 [1, 5] greater than 2610 nM, an IC50 [2, 6] greater than 2610 nM and an IC50 [3] of 87000 nM. The IC50 [4] was 33 nM.
In the case of C[C@H]1[C@H](OC(=O)CCC(=O)O)O[C@@H]2O[C@@]3(C)CC[C@H]4[C@H](C)CC[C@@H]1[C@@]24OO3 [Artesunate, artesunate, reference compound], the IC50 ([1]; Plasmodium falciparum, chloroquine-sensitive (CQS) P. falciparum strain NF54, asexual erythrocyte stages, pLDH assay) is reported as less than 10 nM and the IC50 ([2]; Plasmodium falciparum, chloroquine-resistant (CQR) P. falciparum strain Dd2, asexual erythrocyte stages, pLDH assay) is reported as 16 nM.
For COc1cc(C(=O)NO)ccc1Cn1c2c(c3ccccc31)CS(=O)(=O)CC2 [Compound 1f], the IC50 [1, 5] is given as 21000 nM and the IC50 [4] is given as 2000 nM.
For O=C(NO)c1ccc(CN2c3ccccc3S(=O)(=O)CC3CCCC32)cc1 (stereo not shown) [Compound 3d], the IC50 [2, 6] was 940 nM and the IC50 [3] was 108000 nM.
CC[C@H]1CN2CCc3cc(OC)c(OC)cc3[C@@H]2C[C@@H]1C[C@H]1NCCc2cc(OC)c(OC)cc21 [Emetine, reference compound] showed an IC50 ([3]; Cricetulus griseus) of 112 nM.
With O=C(NO)c1ccc(N(Cc2ccccc2)Cc2csc3ccc(-c4ccccc4)cc23)cc1 [Compound 2f] the IC50 [1, 5] was 5750 nM.
Compound O=C(NO)c1ccc(N(Cc2ccccc2)Cc2csc3cc(-c4ccccc4)ccc23)cc1 [Compound 2j] has an IC50 [1, 5] of 5020 nM.
For O=C(NO)c1ccc(Cn2c3c(c4cc(F)ccc42)CS(=O)(=O)CC3)cc1 [Compound 1g], the IC50 [1, 5] is listed as 15800 nM and the IC50 [4] is listed as 4 nM.
In the case of O=C(NO)c1ccc(Cn2c3c(c4ccccc42)CSCC3)cc1 [Compound 1a], the IC50 [1, 5] is given as 37500 nM and the IC50 [4] is given as 15 nM.
Work on O=C(NO)c1ccc(CN2c3cc(C(F)(F)F)ccc3SCC3CCCC32)cc1 (racemic) [Compound 3c] yielded an IC50 [1, 5] of 1530 nM, an IC50 [2, 6] greater than 2290 nM and an IC50 [3] of 61500 nM. For the same compound, the IC50 [4] was 200 nM.
Work on O=C(NO)c1ccc(N(Cc2ccccc2)Cc2csc3ccc(Br)cc23)cc1 [Compound 2d] yielded an IC50 [1, 5] of 17800 nM.
In the case of O=C(NO)c1ccc(Cn2c3c(c4cc(F)ccc42)CSCC3)cc1 [Compound 1c], the IC50 [1, 5] is reported as 2200 nM, the IC50 [2, 6] is reported as 3100 nM and the IC50 [3] is reported as 105000 nM. The IC50 [4] was 22 nM.
With O=C(NO)c1ccc(NCc2csc3ccccc23)cc1 [Compound 2a] the IC50 [1, 5] was 1600 nM, the IC50 [2, 6] was 2130 nM and the IC50 [3] was 12700 nM. The IC50 [4] was 14 nM.
Work on O=C(NO)c1cccc(Cn2c3c(c4cc(F)ccc42)CS(=O)(=O)CC3)c1 [Compound 1q] yielded an IC50 [1, 5] of 7840 nM.
COc1cc(C(=O)NO)ccc1Cn1c2c(c3cc(F)ccc31)CSCC2 [Compound 1d] gave an IC50 [1, 5] of 23200 nM.
O=C(NO)c1ccc(NCc2csc3ccc(Br)cc23)cc1 [Compound 2c] showed an IC50 [1, 5] of 1020 nM, an IC50 [2, 6] of 2400 nM and an IC50 [3] of 31000 nM. For the same compound, the IC50 [4] was 37 nM.
Work on O=C(NO)c1cccc(Cn2c3c(c4ccccc42)CSCC3)c1 [Compound 1n] yielded an IC50 [1, 5] of 1480 nM, an IC50 [2, 6] of 2180 nM and an IC50 [3] greater than 295000 nM.
Compound O=C(NO)c1ccc(N(Cc2ccccc2)Cc2csc3ccccc23)cc1 [Compound 2b] has an IC50 [1, 5] of 32400 nM.
With CCN(CC)CCCC(C)Nc1ccnc2cc(Cl)ccc12 (stereo not shown) [Chloroquine, chloroquine, reference compound] the IC50 ([1]; Plasmodium falciparum, NF54, Erythrocyte) was 10 nM and the IC50 ([2]; Plasmodium falciparum, DD2, Erythrocyte) was 175 nM.
For O=C(NO)c1ccc(Cn2c3c(c4cc(F)ccc42)C[S+]([O-])CC3)cc1 (racemic) [Compound 1k], the IC50 [2, 6] was 800 nM and the IC50 [3] was greater than 269000 nM.
With O=C(NO)c1ccc(CN2c3cc(C(F)(F)F)ccc3S(=O)(=O)CC3CCCC32)cc1 (racemic) [Compound 3f] the IC50 [1, 5] was 870 nM, the IC50 [2, 6] was 700 nM and the IC50 [3] was 56800 nM.
COc1cc(C(=O)NO)ccc1Cn1c2c(c3ccccc31)CSCC2 [Compound 1b] gave an IC50 [1, 5] of 14000 nM.
